These results are taken from patent US8410278B2, “Method for preparing a non-hydratable crystal form” (E I du Pont de Nemours and Company, priority 2008, dated 2013).

Data set [1] is described as follows: Crystal form stability during long-term storage. Type of data set: physicochemical. An excerpt: (§1) A method has now been discovered for the preparation of a non-hydratable polymorph of Compound 1 (Polymorph A) from a hydratable polymorph of Compound 1 (Polymorph B) that typically is initially formed by procedures for preparing Compound 1. […] This surprising stability facilitates a more consistent assay of Compound 1. These characteristics also make Polymorph A of Compound 1 well suited for the production of long-lasting stable solid formulations, enabling specifying a stable active ingredient content.

The nature of data set [2]: Water uptake/loss on exposure to variations in atmospheric humidity. Type of data set: physicochemical.
Description: as §1

The format of data set [3] is physicochemical. An excerpt: Remarkably water is now discovered to work very well as a solvent in the heated liquid phase for converting Polymorph B to Polymorph A. This is particularly unexpected, because Polymorph B, which can accommodate significant amounts of water in its crystal lattice, can be anticipated to be favored over anhydrous Polymorph A in an aqueous medium. Nevertheless, water is now found to be particularly suitable in forming the liquid phase for conversion of Polymorph B to Polymorph A. Conversion proceeds to near 100% completion and in high yields within commercially convenient time periods at temperatures not exceeding about 100° C. (i.e. the normal boiling point of water). […] Alternatively if Polymorph A is in high concentration in water, Polymorph A can be isolated by evaporation of the water.

As for `CNC(=O)c1cc(C#N)cc(C)c1NC(=O)c1cc(Br)nn1-c1ncccc1Cl` [Polymorph A, 3-bromo-1-(3-chloro-2-pyridinyl)-N-[4-cyano-2-methyl-6-[(methylamino)carbonyl]phenyl]-1H-pyrazole-5-carboxamide], in data set [1], the “Conversion to Polymorph B during long-term storage” value is reported as “does not typically convert to Polymorph B”. The “Change of water content on exposure to variations in atmospheric humidity” value in data set [2] is “does not gain or lose appreciable amounts of water”. Besides, the Solubility in water entry in data set [3] was “little solubility in water”.

On to `CNC(=O)c1cc(C#N)cc(C)c1NC(=O)c1cc(Br)nn1-c1ncccc1Cl` [Polymorph B, 3-bromo-1-(3-chloro-2-pyridinyl)-N-[4-cyano-2-methyl-6-[(methylamino)carbonyl]phenyl]-1H-pyrazole-5-carboxamide], for which the “Change of water content on exposure to variations in atmospheric humidity” value in data set [2] was “changes significantly”.
